In ChEMBL document CHEMBL1201862, “PubChem BioAssay data set” (2004):
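48-hour exposure; five concentrations; linearly interpolated endpoints. Abbreviation: GI50, concentration required for 50% inhibition of growth.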 The source made the active and inactive calls. No stated cut-off is given here; in the data, active = GI50 up to about 1.1 µM and inactive = higher.

What was measured:
Test in all cases: NCI-60 cell line screen, 48 h
UO-31 = test system: UO-31
SF-268 = test system: SF-268
M14 = test system: M14
COLO 205 = test system: COLO 205
SF-295 = test system: SF-295
IGROV-1 = test system: IGROV-1
HT-29 = test system: HT-29
RXF 393 = test system: RXF 393
MOLT-4 = test system: MOLT-4
KM12 = test system: KM12
UACC-62 = test system: UACC-62
SW-620 = test system: SW-620
HOP-92 = test system: HOP-92
SK-MEL-28 = test system: SK-MEL-28
NCI-H226 = test system: NCI-H226
HCT-116 = test system: HCT-116
A498 = test system: A498
NCI/ADR-RES = test system: NCI/ADR-RES
MCF7 = test system: MCF7

Measured: GI50

CC(=O)SCCC1c2[nH]c3ccccc3c2CCN1O (configuration not stated)
inactive: UO-31 > 100 µM | SF-268 > 100 µM | M14 > 100 µM | COLO 205 > 100 µM | SF-295 > 100 µM | IGROV-1 > 100 µM | HT-29 > 100 µM | RXF 393 78 µM | MOLT-4 40.6 µM | KM12 68.9 µM | UACC-62 > 100 µM | SW-620 28.1 µM | HOP-92 26.7 µM | SK-MEL-28 > 100 µM

NC1=NN(c2ccccc2)C(=O)C1C(=O)C(=O)NC1C2CC3CC(C2)CC1C3 (configuration not stated)
inactive: UO-31 > 100 µM | SF-268 > 100 µM | M14 > 100 µM | COLO 205 > 100 µM | SF-295 > 100 µM | IGROV-1 > 100 µM | NCI-H226 > 100 µM | HT-29 > 100 µM | RXF 393 > 100 µM | MOLT-4 > 100 µM | KM12 > 100 µM | UACC-62 > 100 µM | SW-620 > 100 µM | HOP-92 > 100 µM | SK-MEL-28 > 100 µM | HCT-116 > 100 µM

CC(=O)/C(=C\c1ccccc1O)C(=O)Nc1ccccc1C
inactive: UO-31 16 µM | SF-268 26 µM | M14 17.5 µM | SF-295 23.2 µM | IGROV-1 25.9 µM | NCI-H226 27.4 µM | HT-29 16.9 µM | RXF 393 19.1 µM | MOLT-4 9.84 µM | KM12 17.2 µM | UACC-62 20 µM | SW-620 20.7 µM | HOP-92 15.9 µM | SK-MEL-28 24.3 µM | HCT-116 24.4 µM

O=S1(=O)CCCS(=O)(=O)C(c2ccccc2)=C1c1ccccc1
inactive: UO-31 > 100 µM | SF-268 > 100 µM | M14 26.9 µM | SF-295 > 10 µM | IGROV-1 70.5 µM | NCI-H226 56.5 µM | HT-29 64 µM | MOLT-4 36.2 µM | KM12 24.7 µM | UACC-62 29 µM | SW-620 27.5 µM | HOP-92 28.2 µM | A498 > 100 µM | SK-MEL-28 > 100 µM | HCT-116 30.5 µM

CC1=NN(C(=O)Cc2ccccc2)C(=O)/C1=C\c1cccc(O)c1
inactive: UO-31 > 100 µM | SF-268 > 100 µM | M14 > 100 µM | COLO 205 > 100 µM | SF-295 > 100 µM | NCI-H226 > 100 µM | HT-29 > 100 µM | MOLT-4 > 100 µM | KM12 > 100 µM | SW-620 > 100 µM | SK-MEL-28 > 100 µM | HCT-116 > 100 µM

Cn1c(=O)c(C(=O)NC(=O)OCc2ccccc2)cn(CCSCCOC(=O)NCCCCCCNC(=O)OCCSCCn2cc(C(=O)NC(=O)OCc3ccccc3)c(=O)n(C)c2=O)c1=O
inactive: UO-31 74.6 µM | SF-268 84.9 µM | M14 > 100 µM | COLO 205 > 100 µM | IGROV-1 > 100 µM | NCI-H226 > 100 µM | RXF 393 33.7 µM | MOLT-4 > 100 µM | UACC-62 > 100 µM | SW-620 > 100 µM | HOP-92 23.2 µM | A498 > 100 µM | SK-MEL-28 > 100 µM | HCT-116 > 100 µM

COc1ccccc1-c1cc(O)c2cc3c(cc2n1)OCO3
inactive: UO-31 65.2 µM | COLO 205 17.2 µM | IGROV-1 35.2 µM | HT-29 28.4 µM | MOLT-4 23.2 µM | UACC-62 31.6 µM | SW-620 17.7 µM | A498 11.9 µM | SK-MEL-28 > 100 µM | HCT-116 28.6 µM

O=[PH](O)c1cccnc1
inactive: UO-31 > 100 µM | SF-268 > 100 µM | M14 > 100 µM | COLO 205 > 100 µM | SF-295 > 100 µM | IGROV-1 > 100 µM | NCI-H226 > 100 µM | HT-29 > 100 µM | RXF 393 > 100 µM | MOLT-4 > 100 µM | KM12 > 100 µM | UACC-62 > 100 µM | SW-620 > 100 µM | HOP-92 > 100 µM | A498 > 100 µM | SK-MEL-28 > 100 µM | HCT-116 > 100 µM

COc1c(-c2nc3ccc(N4CCN(C)CC4)nc3[nH]2)cc(OC)c2[nH]c(COC(C)=O)nc12
inactive: UO-31 30.7 µM | SF-268 61.8 µM | M14 19.5 µM | COLO 205 28.7 µM | NCI/ADR-RES > 100 µM | SF-295 34.4 µM | IGROV-1 65.9 µM | MCF7 17.2 µM | HT-29 20.3 µM | RXF 393 21.8 µM | KM12 23.9 µM | UACC-62 47.9 µM | SW-620 27.9 µM | HOP-92 > 100 µM | A498 93.1 µM | SK-MEL-28 49.1 µM | HCT-116 20 µM

C/C(=N\NC(=O)CC(=O)N(C(=O)c1ccc(Cl)cc1)c1ccc(C)cc1)c1ccccc1O
inactive: UO-31 4.82 µM | SF-268 28.1 µM | M14 81.7 µM | COLO 205 16.9 µM | SF-295 7.33 µM | IGROV-1 > 100 µM | NCI-H226 77.6 µM | HT-29 48.1 µM | RXF 393 18.3 µM | MOLT-4 5.79 µM | KM12 9.68 µM | UACC-62 > 100 µM | SW-620 > 100 µM | A498 73.6 µM | SK-MEL-28 61.8 µM | HCT-116 62.2 µM

COC1CC(Br)(C#N)C1 (configuration not stated)
inactive: UO-31 > 100 µM | SF-268 > 100 µM | M14 > 100 µM | COLO 205 > 100 µM | SF-295 > 100 µM | IGROV-1 > 100 µM | HT-29 > 100 µM | RXF 393 > 100 µM | MOLT-4 52 µM | KM12 > 100 µM | UACC-62 > 100 µM | HOP-92 > 100 µM | SK-MEL-28 > 100 µM | HCT-116 > 100 µM

CC1(Br)C(=O)NC(=O)N([C@H]2C[C@H](O)[C@@H](CO)O2)C1N=[N+]=[N-] (some centres not stated)
inactive: UO-31 > 100 µM | SF-268 > 100 µM | M14 > 100 µM | COLO 205 > 100 µM | SF-295 > 100 µM | IGROV-1 > 100 µM | NCI-H226 > 100 µM | HT-29 > 100 µM | RXF 393 > 100 µM | MOLT-4 > 100 µM | KM12 > 100 µM | UACC-62 > 100 µM | SW-620 > 100 µM | HOP-92 > 100 µM | A498 > 100 µM | SK-MEL-28 > 100 µM | HCT-116 > 100 µM

CN1CC[C@]2(C)c3c(O)cccc3CC3CCCC1C32C (some centres not stated)
inactive: UO-31 > 100 µM | SF-268 > 100 µM | M14 > 100 µM | COLO 205 > 100 µM | SF-295 > 100 µM | IGROV-1 > 100 µM | NCI-H226 > 100 µM | HT-29 > 100 µM | RXF 393 > 100 µM | MOLT-4 > 100 µM | KM12 > 100 µM | UACC-62 > 100 µM | HOP-92 89.7 µM | A498 > 100 µM | SK-MEL-28 > 100 µM | HCT-116 > 100 µM

COc1cc(C(C)O)c[n+](CCc2c[nH]c3ccccc23)c1 (configuration not stated)
inactive: UO-31 > 100 µM | SF-268 27.1 µM | M14 > 100 µM | COLO 205 72.8 µM | SF-295 > 100 µM | IGROV-1 > 100 µM | HT-29 58.6 µM | RXF 393 > 100 µM | MOLT-4 > 100 µM | KM12 > 100 µM | UACC-62 > 100 µM | SW-620 > 100 µM | A498 > 100 µM | HCT-116 > 100 µM

CN(C)Cc1[nH]c2ccccc2c1C(=O)c1ccccc1
inactive: UO-31 31.6 µM | SF-268 > 100 µM | M14 > 100 µM | COLO 205 > 100 µM | SF-295 > 100 µM | IGROV-1 > 100 µM | NCI-H226 > 100 µM | HT-29 > 100 µM | MOLT-4 > 100 µM | KM12 > 100 µM | UACC-62 > 100 µM | SW-620 > 100 µM | HOP-92 33 µM | SK-MEL-28 > 100 µM | HCT-116 > 100 µM

COc1ccc(/C=C2\C(=O)N(C(=O)c3ccc(NC(C)=O)cc3)N=C2C)cc1
inactive: UO-31 > 100 µM | SF-268 > 100 µM | M14 > 100 µM | COLO 205 > 100 µM | SF-295 > 100 µM | NCI-H226 > 100 µM | HT-29 > 100 µM | MOLT-4 > 100 µM | KM12 > 100 µM | SW-620 > 100 µM | SK-MEL-28 > 100 µM | HCT-116 > 100 µM

N#Cc1ccc(C2SCc3nc4ccccc4n32)cc1 (configuration not stated)
inactive: UO-31 15.2 µM | SF-268 > 100 µM | M14 54.2 µM | COLO 205 > 100 µM | SF-295 74.3 µM | IGROV-1 79.4 µM | RXF 393 10.5 µM | MOLT-4 63.1 µM | KM12 > 100 µM | UACC-62 50.7 µM | SW-620 > 100 µM | A498 58.7 µM | SK-MEL-28 42.4 µM | HCT-116 44.8 µM

Cn1nc(-c2ccccc2)c2c(/C=C/c3ccc(Cl)cc3)onc2c1=O
inactive: UO-31 16.3 µM | SF-268 > 100 µM | M14 > 100 µM | COLO 205 30.8 µM | SF-295 27.4 µM | IGROV-1 31.4 µM | HT-29 34.4 µM | RXF 393 39.8 µM | MOLT-4 > 100 µM | UACC-62 35.8 µM | SW-620 28.7 µM | HOP-92 21.7 µM | SK-MEL-28 51.3 µM | HCT-116 11.1 µM
